In US20220144823A1, “PYRAZOLOPYRIDINE DERIVATIVES AS INHIBITORS OF PASK” (Galapagos NV, priority 2019, published 2022) one finds IC50 data, which are given here for 27 compounds.

Each structure is given as a SMILES string.

As usually defined, the IC50 is the concentration needed to halve the response being measured.

The target in assay [1] is T1, human PASK (Homo sapiens, UniProt Q96RG2).
T1 construct: purchased ThermoFisher Scientific PR7013A
The assay is described as follows: 33P radioactive kinase assay. Type of assay: biochemical. The settings on record: 33P radioactive PASK kinase assay, 10 μM ATP, ZIPtide 1 μM. How it is done: The principle of the ^33P radioactive kinase assay consists in measuring the incorporated ^33P into the ZIPtide peptide substrate when phosphorylated by human PASK using [^33P]-[…]-ATP and ATP, which correlates with kinase activity.
The test compounds are prepared as a serial dilution of 10 point dose responses with 1/5 dilution steps in 100% DMSO starting from 0.2 or 2 mM highest concentration, diluted 1/20 in water and 5 μL is transferred to the assay plates (Greiner, Cat #651201).
(§1) 1% DMSO and 10 μM staurosporine final concentrations are used respectively as negative and positive controls.
11 μL of enzyme-substrate mixture is added on the assay plates. The reactions are started by adding 9 μL ATP mixture, consisting of non-labeled and ^33P-labeled ATP, on the assay plates.
The reactions are stopped by adding 25 μL phosphoric acid (150 mM) to the reactions.
The completely terminated kinase reactions are transferred using a harvester on pre-wetted UniFilter-96 plates (UniFilter-96 GF/B, PerkinElmer Inc., Cat #6005177).
After harvesting the kinase reactions, the filter plates are washed 6 times with phosphoric acid (75 mM). The back of the UniFilter-96 plates are sealed and 40 μL MicroScint-20 (PerkinElmer Inc., Cat #6013621) is added to each well. The top of each plate is sealed with TopSeal-A (PerkinElmer Inc., Cat #6050185). Read-out is performed with a TopCount instrument (PerkinElmer Inc.).
Raw data are generated following the read-out performed on the TopCount, used to calculate percentage inhibition (PIN) values and plotted to generate dose response curves and derive the average half maximal inhibitory concentrations (IC50) reported in Table VI.

Assay [2] has as its target T1, human PASK. Put plainly: ADP-Glo kinase assay. Type of assay: biochemical. The settings on record: ADPGlo PASK kinase assay, 25 μM ATP, ZIPtide 25 μM. As for the experimental part: The ADP-Glo™ kinase assay is a luminescent technology assay which measures the ADP formed from a kinase reaction. In this specific study, the kinase reactions consisted of the phosphorylation of the ZIPtide peptide substrate by human recombinant PASK. In a second step the kinase reaction is terminated and all the remaining ATP is depleted. In a final step the ADP is converted into ATP and this newly synthesized ATP is measured by using a luciferase/luciferin reaction. The generated light is measured using an Envision plate reader, wherein the luminescent signal obtained positively correlates with the kinase activity.
The test compounds are prepared as a serial dilution of 10 point dose responses with 1/5 dilution steps in 100% DMSO starting from 2 mM highest concentration, diluted 1/20 in water and 1 μL is transferred to the assay plates (PerkinElmer Inc., Cat #6007290).
as §1
2 μL enzyme-substrate mixture is added to the assay plates.
The reaction is started by adding 2 μL diluted ATP on the assay plates immediately after addition of the enzyme-substrate mixture to the compound. Plates are centrifuged for a few seconds at 1000 rpm and gently shaken for 2 min followed by an incubation at RT for 120 min.
The reactions are stopped and the unconsumed ATP is depleted by adding 5 μL ADP-Glo Reagent (Promega, Cat #V912B) to the reaction. The plates are centrifuged for a few seconds at 1000 rpm and incubated at RT for 40 min (ATP depletion).
The ADP is converted to ATP and luciferase and luciferin is introduced to detect ATP by adding 10 μL Kinase Detection Reagent (Promega, Cat #V913B+V914B) to the reaction. The plates are centrifuged for a few seconds at 1000 rpm and incubated at RT for 30 min (ADP detection).
Luminescence is measured on an Envision plate reader (PerkinElmer Inc.).
Raw data are generated following the read-out performed on the Envision plate reader, used to calculate percentage inhibition (PIN) values and plotted to generate dose response curves and derive the average half maximal inhibitory concentrations (IC50) reported in Table VIII.
On the technique in general: ADP-Glo first removes unused ATP, then detects ADP through luciferase.

T1 sequence (Q96RG2 whole entry): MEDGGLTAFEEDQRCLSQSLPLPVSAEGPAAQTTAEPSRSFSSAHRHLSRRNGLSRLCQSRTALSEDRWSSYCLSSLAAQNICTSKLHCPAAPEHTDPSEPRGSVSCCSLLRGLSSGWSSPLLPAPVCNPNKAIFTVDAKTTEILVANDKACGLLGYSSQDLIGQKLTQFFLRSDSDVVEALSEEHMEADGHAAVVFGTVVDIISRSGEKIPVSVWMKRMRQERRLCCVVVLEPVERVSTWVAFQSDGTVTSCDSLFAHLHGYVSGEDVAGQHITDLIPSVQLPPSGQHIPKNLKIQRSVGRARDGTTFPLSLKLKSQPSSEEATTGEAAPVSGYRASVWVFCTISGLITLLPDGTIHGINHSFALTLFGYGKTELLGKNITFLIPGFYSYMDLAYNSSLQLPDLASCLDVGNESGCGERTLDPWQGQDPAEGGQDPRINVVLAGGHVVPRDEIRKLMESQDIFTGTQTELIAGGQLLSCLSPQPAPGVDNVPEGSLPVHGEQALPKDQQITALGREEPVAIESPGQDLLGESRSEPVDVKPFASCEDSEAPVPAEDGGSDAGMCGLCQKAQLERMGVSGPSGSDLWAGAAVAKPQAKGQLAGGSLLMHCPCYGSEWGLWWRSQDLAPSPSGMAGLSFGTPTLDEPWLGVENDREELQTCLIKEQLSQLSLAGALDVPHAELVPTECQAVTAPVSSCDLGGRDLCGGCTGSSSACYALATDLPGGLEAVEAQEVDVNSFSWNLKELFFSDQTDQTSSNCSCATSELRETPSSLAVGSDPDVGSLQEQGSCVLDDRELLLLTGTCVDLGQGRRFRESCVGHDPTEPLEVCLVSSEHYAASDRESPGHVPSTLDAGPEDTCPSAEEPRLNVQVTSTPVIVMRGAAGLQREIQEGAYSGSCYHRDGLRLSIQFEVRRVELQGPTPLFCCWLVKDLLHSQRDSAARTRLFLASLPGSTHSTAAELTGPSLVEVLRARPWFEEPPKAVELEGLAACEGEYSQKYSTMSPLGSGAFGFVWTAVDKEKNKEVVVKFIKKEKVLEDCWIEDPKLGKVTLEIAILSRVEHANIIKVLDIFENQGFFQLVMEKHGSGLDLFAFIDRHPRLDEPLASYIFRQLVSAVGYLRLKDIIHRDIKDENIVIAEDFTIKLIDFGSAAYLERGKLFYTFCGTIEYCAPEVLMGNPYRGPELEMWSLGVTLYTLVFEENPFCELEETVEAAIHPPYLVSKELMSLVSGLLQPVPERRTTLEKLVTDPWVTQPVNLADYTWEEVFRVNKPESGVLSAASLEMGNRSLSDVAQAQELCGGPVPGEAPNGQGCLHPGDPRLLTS

On to `CCc1oc(-c2ccn3ncc(-c4c(C)nn(C)c4C)c3c2)cc1C(=O)O` [Cpd 26, 2-ethyl-5-[3-(1,3,5-trimethylpyrazol-4-yl)pyrazolo[1,5-a]pyridin-5-yl]furan-3-carboxylic acid], for which the IC50 in assay [1] was 0.01 to 10 nM.
For `Cc1noc(C)c1-c1cnn2ccc(-c3cc(C(=O)O)c(C4CCOCC4)o3)cc12` [Cpd 44, 5-[3-(3,5-dimethylisoxazol-4-yl)pyrazolo[1,5-a]pyridin-5-yl]-2-tetrahydropyran-4-yl-furan-3-carboxylic acid], the IC50 in assay [2] and in assay [1] was 0.01 to 10 nM in each case.
In the case of `CCOc1nc(-c2ccn3ncc(-c4c(C)noc4C)c3c2)sc1C(=O)O` [Cpd 17, 2-[3-(3,5-dimethylisoxazol-4-yl)pyrazolo[1,5-a]pyridin-5-yl]-4-ethoxy-thiazole-5-carboxylic acid], the IC50 in assay [2] and in assay [1] was 0.01 to 10 nM each time.
On to `Cc1noc(C)c1-c1cnn2ccc(-c3ccc(C(=O)O)o3)cc12` [Cpd 31, 5-[3-(3,5-dimethylisoxazol-4-yl)pyrazolo[1,5-a]pyridin-5-yl]furan-2-carboxylic acid], for which the IC50 in assay [1] is 10 to 100 nM.
On to `CCn1nc(C)c(-c2cnn3ccc(-c4ncc(C(=O)O)s4)cc23)c1C` [Cpd 29, 2-[3-(1-ethyl-3,5-dimethyl-pyrazol-4-yl)pyrazolo[1,5-a]pyridin-5-yl]thiazole-5-carboxylic acid], for which the half-inhibitory concentration (IC50) in assay [2] and in assay [1] was 0.01 to 10 nM throughout.
For the compound `Cc1nn(C(C)C)c(C)c1-c1cnn2ccc(-c3nc(C(F)F)c(C(=O)O)s3)cc12` [Cpd 46, 4-(difluoromethyl)-2-[3-(1-isopropyl-3,5-dimethyl-pyrazol-4-yl)pyrazolo[1,5-a]pyridin-5-yl]thiazole-5-carboxylic acid], the IC50 in assay [1] was 0.01 to 10 nM.
Regarding `Cc1nn(C)cc1-c1cnn2ccc(-c3cc(C(=O)O)co3)cc12` [Cpd 14, 5-[3-(1,3-dimethylpyrazol-4-yl)pyrazolo[1,5-a]pyridin-5-yl]furan-3-carboxylic acid], the IC50 in assay [2] and in assay [1] was 0.01 to 10 nM throughout.
As for `Cc1nn(C)c(C)c1-c1cnn2ccc(-c3cc(C(=O)NS(C)(=O)=O)co3)cc12` [Cpd 21, N-methylsulfonyl-5-[3-(1,3,5-trimethylpyrazol-4-yl)pyrazolo[1,5-a]pyridin-5-yl]furan-3-carboxamide], the IC50 in assay [1] was in the range of 10 to 100 nM.
Take `Cc1c(-c2cnn3ccc(-c4nc(C(=O)O)co4)cc23)cnn1C` [Cpd 33, 2-[3-(1,5-dimethylpyrazol-4-yl)pyrazolo[1,5-a]pyridin-5-yl]oxazole-4-carboxylic acid]: in assay [1], the IC50 was in the range of 10 to 100 nM.
As to `Cc1nn(C)c(C)c1-c1cnn2ccc(-c3cc(C(=O)O)c(C4CC4)o3)cc12` [Cpd 15, 2-cyclopropyl-5-[3-(1,3,5-trimethylpyrazol-4-yl)pyrazolo[1,5-a]pyridin-5-yl]furan-3-carboxylic acid], the IC50 in assay [2] and in assay [1] was 0.01 to 10 nM throughout.
Turning to `Cc1noc(C)c1-c1cnn2ccc(-c3cc(C(=O)O)c(C)o3)cc12` [Cpd 19, 5-[3-(3,5-dimethylisoxazol-4-yl)pyrazolo[1,5-a]pyridin-5-yl]-2-methyl-furan-3-carboxylic acid], in assay [1], the IC50 fell in the range of 0.01 to 10 nM.
Same read-out and setting: the value for `Cn1cc(-c2cnn3ccc(-c4cc(C(=O)O)co4)cc23)cn1` [Cpd 3, 5-[3-(1-methylpyrazol-4-yl)pyrazolo[1,5-a]pyridin-5-yl]furan-3-carboxylic acid] was 10 to 100 nM.
For the compound `Cc1noc(C)c1-c1cnn2ccc(-c3nc(C(=O)O)c(C)o3)cc12` [Cpd 34, 2-[3-(3,5-dimethylisoxazol-4-yl)pyrazolo[1,5-a]pyridin-5-yl]-5-methyl-oxazole-4-carboxylic acid], the IC50 in assay [2] and in assay [1] was 10 to 100 nM in each case.
Regarding `Cc1noc(C)c1-c1cnn2ccc(-c3ncc(C(=O)O)o3)cc12` [Cpd 24, 2-[3-(3,5-dimethylisoxazol-4-yl)pyrazolo[1,5-a]pyridin-5-yl]oxazole-5-carboxylic acid], the IC50 in assay [1] lay within 0.01 to 10 nM.
The same measure, in the same setting: in the case of `Cc1noc(C)c1-c1cnn2ccc(-c3cc(C(=O)O)c(C4=CCOCC4)o3)cc12` [Cpd 41, 2-(3,6-dihydro-2H-pyran-4-yl)-5-[3-(3,5-dimethyl-isoxazol-4-yl)pyrazolo[1,5-a]pyridin-5-yl]furan-3-carboxylic acid] it was 0.01 to 10 nM.
For `Cc1noc(C)c1-c1cnn2ccc(-c3nc(C(F)(F)F)c(C(=O)O)o3)cc12` [Cpd 36, 2-[3-(3,5-dimethylisoxazol-4-yl)pyrazolo[1,5-a]pyridin-5-yl]-4-(trifluoromethyl) oxazole-5-carboxylic acid], the IC50 in assay [2] and in assay [1] was 100 to 500 nM in each case.
For the compound `Cc1noc(C)c1-c1cnn2ccc(-c3cc(C(=O)O)co3)cc12` [Cpd 4, 5-[3-(3,5-dimethylisoxazol-4-yl)pyrazolo[1,5-a]pyridin-5-yl]furan-3-carboxylic acid], the 50% inhibitory concentration (IC50) in assay [2] and in assay [1] was 0.01 to 10 nM throughout.
Consider `COC(=O)c1coc(-c2ccn3ncc(-c4c(C)nn(C)c4C)c3c2)c1` [Cpd 5, methyl 5-[3-(1,3,5-trimethylpyrazol-4-yl)pyrazolo[1,5-a]pyridin-5-yl]furan-3-carboxylate], for which, in assay [1], the IC50 is 10 to 100 nM.
The same measure, in the same setting: in the case of `Cc1noc(C)c1-c1cnn2ccc(-c3ncc(C(=O)O)s3)cc12` [Cpd 25, 2-[3-(3,5-dimethylisoxazol-4-yl)pyrazolo[1,5-a]pyridin-5-yl]thiazole-5-carboxylic acid] it was 0.01 to 10 nM; in that of `Cc1nn(C)c(C)c1-c1cnn2ccc(-c3cc(C(=O)O)c(C)o3)cc12` [Cpd 16, 2-methyl-5-[3-(1,3,5-trimethylpyrazol-4-yl)pyrazolo[1,5-a]pyridin-5-yl]furan-3-carboxylic acid], 0.01 to 10 nM.
Same read-out and setting: in the case of `Cc1nn(C)c(C)c1-c1cnn2ccc(-c3cc(C(=O)OCC(=O)N(C)C)co3)cc12` [Cpd 7, [2-(dimethylamino)-2-oxo-ethyl] 5-[3-(1,3,5-trimethylpyrazol-4-yl)pyrazolo[1,5-a]pyridin-5-yl]furan-3-carboxylate] it was 10 to 100 nM; in that of `COc1nc(-c2ccn3ncc(-c4c(C)nn(C)c4C)c3c2)sc1C(N)=O` [Cpd 11, 4-methoxy-2-[3-(1,3,5-trimethylpyrazol-4-yl)pyrazolo[1,5-a]pyridin-5-yl]thiazole-5-carboxamide], 0.01 to 10 nM; in that of `Cc1nn(C)c(C)c1-c1cnn2ccc(-c3cc(C(=O)NS(=O)(=O)C4CC4)co3)cc12` [Cpd 22, N-cyclopropylsulfonyl-5-[3-(1,3,5-trimethylpyrazol-4-yl)pyrazolo[1,5-a]pyridin-5-yl]furan-3-carboxamide], 10 to 100 nM.
Same read-out and setting: the value for `Cc1nn(C)c(C)c1-c1cnn2ccc(-c3cc(C(=O)O)c(CC(C)C)o3)cc12` [Cpd 27, 2-isobutyl-5-[3-(1,3,5-trimethylpyrazol-4-yl)pyrazolo[1,5-a]pyridin-5-yl]furan-3-carboxylic acid] was 0.01 to 10 nM; that for `CCOC(=O)c1coc(-c2ccn3ncc(-c4c(C)nn(C)c4C)c3c2)c1` [Cpd 6, ethyl 5-[3-(1,3,5-trimethylpyrazol-4-yl)pyrazolo[1,5-a]pyridin-5-yl]furan-3-carboxylate] was 10 to 100 nM.
Consider `Cc1noc(C)c1-c1cnn2ccc(-c3nc(C(F)F)c(C(=O)O)s3)cc12` [Cpd 45, 4-(difluoromethyl)-2-[3-(3,5-dimethylisoxazol-4-yl)pyrazolo[1,5-a]pyridin-5-yl]thiazole-5-carboxylic acid], for which, in assay [1], the IC50 lay within 10 to 100 nM.
In the case of `Cn1cc(-c2cnn3ccc(-c4cc(C(=O)O)c(C(=O)Nc5ccccc5)o4)cc23)cn1` [Cpd 1, 5-[3-(1-methylpyrazol-4-yl)pyrazolo[1,5-a]pyridin-5-yl]-2-(phenylcarbamoyl) furan-3-carboxylic acid], the IC50 in assay [1] is 0.01 to 10 nM.
